Results from PubChem BioAssay AID248 (DTP/NCI, 2004).
“And” between values parts separate entries of the source, which are not always exact repeats. Equal values may be shown once. Toxic doses and inconclusive results are not listed. Rule as the data show it: active = T/C of 150% or more; inactive = T/C below 125%.

Test system: L1210 leukemia ip in BDF1 mice, survival T/C
Test: NCI In Vivo Anticancer Drug Screen. Data for tumor model L1210 Leukemia (intraperitoneal) in B6D2F1 (BDF1) mice
Conditions: endpoint: mean survival time, higher = longer survival
Experimental: The antitumor activity of compounds was measured in mice bearing transplantable tumors. Survival or tumor size were measured and the results are expressed as the measurement made in the treated group (T) divided by the measurement made in the vehicle treated control group (C). The tumor model used in this assay is L1210 Leukemia (intraperitoneal) in B6D2F1 (BDF1) mice

[1] = dose: 100.0 mg/kg/injection, schedule: Q01DX009 (ip), vehicle: Klucel (hydroxypropylcellulose) (HPC)
[2] = dose: 200.0 mg/kg/injection, schedule: Q01DX009 (ip), vehicle: Klucel (hydroxypropylcellulose) (HPC)
[3] = dose: 400.0 mg/kg/injection, schedule: Q01DX009 (ip), vehicle: Klucel (hydroxypropylcellulose) (HPC)
[4] = dose: 100.0 mg/kg/injection, schedule: Q01DX001 (ip), vehicle: carboxymethylcellulose (CMC)
[5] = dose: 200.0 mg/kg/injection, schedule: Q01DX001 (ip), vehicle: carboxymethylcellulose (CMC)
[6] = dose: 400.0 mg/kg/injection, schedule: Q01DX001 (ip), vehicle: carboxymethylcellulose (CMC)
[7] = dose: 100.0 mg/kg/injection, schedule: Q04DX003 (ip), vehicle: saline with Tween-80
[8] = dose: 200.0 mg/kg/injection, schedule: Q04DX003 (ip), vehicle: saline with Tween-80
[9] = dose: 100.0 mg/kg/injection, schedule: Q01DX001 (ip), vehicle: saline
[10] = dose: 200.0 mg/kg/injection, schedule: Q01DX001 (ip), vehicle: saline
[11] = dose: 400.0 mg/kg/injection, schedule: Q01DX001 (ip), vehicle: saline
[12] = dose: 100.0 mg/kg/injection, schedule: Q01DX009 (ip), vehicle: saline with Tween-80
[13] = dose: 200.0 mg/kg/injection, schedule: Q01DX009 (ip), vehicle: saline with Tween-80
[14] = dose: 50.0 mg/kg/injection, schedule: Q01DX009 (ip), vehicle: saline with Tween-80
[15] = dose: 50.0 mg/kg/injection, schedule: Q01DX009 (ip), vehicle: saline
[16] = dose: 100.0 mg/kg/injection, schedule: Q01DX009 (ip), vehicle: saline
[17] = dose: 100.0 mg/kg/injection, schedule: Q01DX009 (ip), vehicle: other
[18] = dose: 200.0 mg/kg/injection, schedule: Q01DX009 (ip), vehicle: other
[19] = dose: 100.0 mg/kg/injection, schedule: Q04DX003 (ip), vehicle: Klucel (hydroxypropylcellulose) (HPC)
[20] = dose: 200.0 mg/kg/injection, schedule: Q04DX003 (ip), vehicle: Klucel (hydroxypropylcellulose) (HPC)
[21] = dose: 400.0 mg/kg/injection, schedule: Q04DX003 (ip), vehicle: Klucel (hydroxypropylcellulose) (HPC)

Measured: T/C

Nc1ccc2c(c1)C(=O)c1ccccc1-2
inactive: dose: 100.0 mg/kg/injection, schedule: Q01DX001 (ip), vehicle: Klucel (hydroxypropylcellulose) (HPC) 88 % of control | dose: 200.0 mg/kg/injection, schedule: Q01DX001 (ip), vehicle: Klucel (hydroxypropylcellulose) (HPC) 95 % of control | dose: 400.0 mg/kg/injection, schedule: Q01DX001 (ip), vehicle: Klucel (hydroxypropylcellulose) (HPC) 97 % of control

CC(=O)c1cccc(NC(=O)Nc2ccc(I)cc2)c1
inactive: [1] 97 % of control | [2] 96 % of control | [3] 97 % of control

Cc1cccnc1NC(=S)Nc1ccccc1Cl
inactive: dose: 100.0 mg/kg/injection, schedule: Q04DX002 (ip), vehicle: gum acacia 88 % of control | dose: 200.0 mg/kg/injection, schedule: Q04DX002 (ip), vehicle: gum acacia 98 % of control

CCOc1ccc(/C=N\NC(=O)c2ccco2)cc1OCC
inactive: [4] 93 % of control | [5] 95 % of control | [6] 97 % of control

O=c1c2ccccc2oc2ccccc12
inactive: dose: 100.0 mg/kg/injection, schedule: Q01DX001 (ip), vehicle: saline with Tween-80 102 % of control | [7] 96 % of control | dose: 200.0 mg/kg/injection, schedule: Q01DX001 (ip), vehicle: saline with Tween-80 102 % of control | [8] 97 % of control | dose: 400.0 mg/kg/injection, schedule: Q01DX001 (ip), vehicle: saline with Tween-80 102 % of control

CCSC(C(OC(C)=O)C(OC(C)=O)C(OC(C)=O)C(COC(C)=O)OC(C)=O)n1cc(C)c(=O)[nH]c1=O (stereo not given)
inactive: dose: 50.0 mg/kg/injection, schedule: Q01DX001 (ip), vehicle: carboxymethylcellulose (CMC) 100 % of control and 97 % of control | [4] 97 % of control and 94 % of control | [5] 100 % of control | [6] 100 % of control and 103 % of control

BrCC12CCC1(CBr)COC2 (stereo not given)
inactive: [9] 99 % of control | [10] 103 % of control | [11] 101 % of control

NCC1CCCC1N (stereo not given)
inactive: dose: 18.8 mg/kg/injection, schedule: Q01DX009 (ip), vehicle: saline 102 % of control | dose: 37.5 mg/kg/injection, schedule: Q01DX009 (ip), vehicle: saline 102 % of control | dose: 75.0 mg/kg/injection, schedule: Q01DX009 (ip), vehicle: saline 97 % of control

CCOC(=O)CNC(=O)Nc1ccc(S(N)(=O)=O)cc1
inactive: [12] 95 % of control | [13] 96 % of control | dose: 400.0 mg/kg/injection, schedule: Q01DX009 (ip), vehicle: saline with Tween-80 96 % of control

CC1CC(NC(=O)CC#N)CC(C)(C)C1 (stereo not given)
inactive: [14] 93 % of control | [12] 90 % of control | dose: 100.0 mg/kg/injection, schedule: Q04DX002 (ip), vehicle: saline with Tween-80 94 % of control | [13] 97 % of control | dose: 200.0 mg/kg/injection, schedule: Q04DX002 (ip), vehicle: saline with Tween-80 102 % of control

COc1ccc(NC(=O)OCCN(CCOC(=O)Nc2ccc(OC)cc2)c2cccc(C)c2)cc1
inactive: [9] 100 % of control | [10] 90 % of control | [11] 90 % of control

CC(=O)N(C)C(C(=O)N1CC(C)CC1C(=O)N(C)C1C(=O)NC(CC(C)C)C(=O)N2CC(C)CC2C(=O)NC(CC(C)C)C(=O)N(C)C(C(C)C)C(=O)N2CCCC2C(=O)N(C)C(CC(C)C)C(=O)NCC(=O)OC1C)C(C)C (stereo not given)
inactive: dose: 18.75 mg/kg/injection, schedule: Q01DX009 (ip), vehicle: Klucel (hydroxypropylcellulose) (HPC) 104 % of control | dose: 37.5 mg/kg/injection, schedule: Q01DX009 (ip), vehicle: Klucel (hydroxypropylcellulose) (HPC) 109 % of control | dose: 75.0 mg/kg/injection, schedule: Q01DX009 (ip), vehicle: Klucel (hydroxypropylcellulose) (HPC) 101 % of control

COCCCNP(=O)(OC)OC
inactive: dose: 100.0 mg/kg/injection, schedule: Q01DX001 (ip), vehicle: acetone 98 % of control | dose: 100.0 mg/kg/injection, schedule: Q04DX003 (ip), vehicle: acetone 98 % of control | dose: 200.0 mg/kg/injection, schedule: Q01DX001 (ip), vehicle: acetone 112 % of control | dose: 200.0 mg/kg/injection, schedule: Q04DX003 (ip), vehicle: acetone 100 % of control | dose: 400.0 mg/kg/injection, schedule: Q01DX001 (ip), vehicle: acetone 105 % of control | dose: 400.0 mg/kg/injection, schedule: Q04DX003 (ip), vehicle: acetone 95 % of control

Cc1ccc([N+](=O)[O-])cc1NC(=O)Nc1nccs1
inactive: [1] 104 % of control | [2] 101 % of control | [3] 102 % of control

C=CCSCC(=O)Cl
inactive: dose: 25.0 mg/kg/injection, schedule: Q01DX009 (ip), vehicle: saline 102 % of control | [15] 100 % of control | [16] 110 % of control | dose: 100.0 mg/kg/injection, schedule: Q04DX002 (ip), vehicle: saline 95 % of control

BrCCOc1ccccc1
inactive: [17] 95 % of control | [18] 101 % of control

CC(=O)OC1C=CCC2C(=O)C34CC=CC(OC(C)=O)C3(C(=O)c3ccccc3C4=O)C(=O)C12 (stereo not given)
inactive: dose: 0.25 mg/kg/injection, schedule: Q04DX003 (ip), vehicle: water 97 % of control | dose: 0.5 mg/kg/injection, schedule: Q04DX003 (ip), vehicle: water 102 % of control | dose: 1.0 mg/kg/injection, schedule: Q04DX003 (ip), vehicle: water 95 % of control | dose: 2.0 mg/kg/injection, schedule: Q04DX003 (ip), vehicle: water 98 % of control | dose: 4.0 mg/kg/injection, schedule: Q04DX003 (ip), vehicle: water 102 % of control | dose: 8.0 mg/kg/injection, schedule: Q04DX003 (ip), vehicle: water 107 % of control | dose: 16.0 mg/kg/injection, schedule: Q04DX003 (ip), vehicle: saline 96 % of control | dose: 16.0 mg/kg/injection, schedule: Q04DX003 (ip), vehicle: water 92 % of control | dose: 32.0 mg/kg/injection, schedule: Q04DX003 (ip), vehicle: saline 98 % of control | dose: 64.0 mg/kg/injection, schedule: Q04DX003 (ip), vehicle: saline 102 % of control

CCOc1ccc(NC(=O)C=O)cc1
inactive: [1] 92 % of control | [19] 94 % of control | [2] 103 % of control | [20] 94 % of control | [3] 105 % of control | [21] 97 % of control

COc1cc2ccnc(/C=N\NC(N)=S)c2cc1OC
inactive: dose: 50.0 mg/kg/injection, schedule: Q01DX001 (ip), vehicle: saline 93 % of control | [9] 98 % of control | [10] 93 % of control

CC(C)CC(=O)NC(C)C(=O)NC(Cc1ccccc1)C(=O)CCl (stereo not given)
inactive: dose: 12.0 mg/kg/injection, schedule: Q04DX002 (ip), vehicle: Klucel (hydroxypropylcellulose) (HPC) 109 % of control | dose: 25.0 mg/kg/injection, schedule: Q04DX002 (ip), vehicle: Klucel (hydroxypropylcellulose) (HPC) 98 % of control | dose: 50.0 mg/kg/injection, schedule: Q04DX002 (ip), vehicle: Klucel (hydroxypropylcellulose) (HPC) 106 % of control

CCCC(=O)Nc1cc2c3c(c1)CCCN3CCC2
inactive: [14] 96 % of control

COC(=O)c1ccc(OC(=S)N(C)C)cc1
inactive: [19] 93 % of control | [20] 98 % of control | [21] 95 % of control

NC(=S)Nc1ccc(C23CCC(CC2)CC3)cc1
inactive: [15] 105 % of control | [16] 105 % of control | dose: 200.0 mg/kg/injection, schedule: Q01DX009 (ip), vehicle: saline 102 % of control

COC(=O)NC1C(C)C=CC(C)C1I (stereo not given)
inactive: [17] 109 % of control | [7] 104 % of control | [18] 96 % of control | [8] 98 % of control | dose: 400.0 mg/kg/injection, schedule: Q01DX009 (ip), vehicle: other 113 % of control | dose: 400.0 mg/kg/injection, schedule: Q04DX003 (ip), vehicle: saline with Tween-80 97 % of control
